The target of the experiment is IDO1 (Homo sapiens, UniProt P14902). Briefly: IDO1 Cellular Assay in HeLa Cells Stimulated with IFNγ. The class given is cell-based. The note with it: read-out: HeLa Cell Potency, IC50.
Chain of IDO1 (P14902 whole entry): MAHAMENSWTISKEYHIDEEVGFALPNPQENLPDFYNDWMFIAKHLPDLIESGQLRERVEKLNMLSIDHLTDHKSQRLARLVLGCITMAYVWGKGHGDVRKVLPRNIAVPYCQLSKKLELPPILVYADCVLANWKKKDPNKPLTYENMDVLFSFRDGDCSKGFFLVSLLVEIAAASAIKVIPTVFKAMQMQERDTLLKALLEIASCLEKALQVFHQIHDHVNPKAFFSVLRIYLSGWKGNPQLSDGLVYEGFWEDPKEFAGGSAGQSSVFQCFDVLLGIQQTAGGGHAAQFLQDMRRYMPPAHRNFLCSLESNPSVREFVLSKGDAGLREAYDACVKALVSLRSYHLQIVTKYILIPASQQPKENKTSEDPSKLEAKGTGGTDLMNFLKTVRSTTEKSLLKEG
The IC50 is the concentration that gives 50% inhibition. Regarding `Cc1cccc(N2CCN(C(=O)Cn3nc(C(=O)N4CCN(C(=O)CO)CC4)c4c3C[C@H]3C[C@@H]43)C(C(F)F)C2)c1C` (some centres unmarked) [Example 388], the 50% inhibitory concentration (IC50) turned out to be 92.6 nM.

`Cc1cccc(N2CCN(C(=O)Cn3nc(C(=O)N4CCN(C(=O)CO)CC4)c4c3C[C@H]3C[C@@H]43)C(C(F)F)C2)c1C` (some centres unmarked) [Example 389]: the IC50 was 47.6 nM.

For the compound `Cc1cccc(N2CCN(C(=O)Cn3nc(C(=O)N4CCN(C(=O)CO)CC4)c4c3C[C@H]3C[C@@H]43)C(C(F)F)C2)c1C` (some centres unmarked) [Example 390], the IC50 stood at 226 nM.

Consider `Cc1cccc(N2CCN(C(=O)Cn3nc(C(=O)N4CCN(C(=O)[C@H](C)O)CC4)c4c3CCC4)CC2)c1C` [Example 397, (S)-1-(4-(1-(2-(4-(2,3-dimethylphenyl)piperazin-1-yl)-2-oxoethyl)-1,4,5,6-tetrahydrocyclopenta[c]pyrazole-3-carbonyl)piperazin-1-yl)-2-hydroxypropan-1-one], for which the IC50 was found to be 22.4 nM.

As for `Cc1cccc(N2CCN(C(=O)Cn3nc(C(=O)N4CCN(C(=O)CN)CC4)c4c3CCC4)CC2)c1C` [Example 398, 2-amino-1-(4-(1-(2-(4-(2,3-dimethylphenyl)piperazin-1-yl)-2-oxoethyl)-1,4,5,6-tetrahydrocyclopenta[c]pyrazole-3-carbonyl)piperazin-1-yl)ethanone], the IC50 is 258 nM.

Regarding `COCC(=O)N1CCN(C(=O)c2nn(CC(=O)N3CCN(c4cccc(C)c4C)CC3)c3c2CCC3)CC1` [Example 399, 1-(4-(2,3-dimethylphenyl)piperazin-1-yl)-2-(3-(4-(2-methoxyacetyl)piperazine-1-carbonyl)-5,6-dihydrocyclopenta[c]pyrazol-1(4H)-yl)ethanone], the half-inhibitory concentration (IC50) came out at 22.4 nM.

In the case of `Cc1cccc(N2CCN(C(=O)Cn3nc(C(=O)N4CCN(C(=O)CO)[C@H](C)C4)c4c3CCC4)CC2)c1C` [Example 400, (R)-1-(4-(2,3-dimethylphenyl)piperazin-1-yl)-2-(3-(4-(2-hydroxyacetyl)-3-methylpiperazine-1-carbonyl)-5,6-dihydrocyclopenta[c]pyrazol-1(4H)-yl)ethanone], the IC50 is 25.6 nM.

For `Cc1cccc(N2CCN(C(=O)Cn3nc(C(=O)N4CCN(C(=O)CO)C[C@@H]4C)c4c3CCC4)CC2)c1C` [Example 401, (S)-1-(4-(2,3-dimethylphenyl)piperazin-1-yl)-2-(3-(4-(2-hydroxyacetyl)-2-methylpiperazine-1-carbonyl)-5,6-dihydrocyclopenta[c]pyrazol-1(4H)-yl)ethanone], the concentration for half-maximal inhibition (IC50) amounted to 12.9 nM.

`Cc1cccc(N2CCN(C(=O)Cn3nc(C(=O)N4CCN(C(=O)CO)C[C@H]4C)c4c3CCC4)CC2)c1C` [Example 402, (R)-1-(4-(2,3-dimethylphenyl)piperazin-1-yl)-2-(3-(4-(2-hydroxyacetyl)-2-methylpiperazine-1-carbonyl)-5,6-dihydrocyclopenta[c]pyrazol-1(4H)-yl)ethanone]: the IC50 turned out to be 3.58 nM.

As for `Cc1cccc(N2CCN(C(=O)Cn3nc(C(=O)N4CCN(C(=O)[C@@H](C)O)CC4)c4c3CCC4)CC2)c1C` [Example 403, (R)-1-(4-(1-(2-(4-(2,3-dimethylphenyl)piperazin-1-yl)-2-oxoethyl)-1,4,5,6-tetrahydrocyclopenta[c]pyrazole-3-carbonyl)piperazin-1-yl)-2-hydroxypropan-1-one], the IC50 stood at 18.3 nM.

Turning to `Cc1c(Cl)cccc1N1CCN(C(=O)Cn2nc(C(=O)N3CC[C@H](O)[C@@H](F)C3)c3c2CCCC3)CC1` [Example 404, 1-(4-(3-chloro-2-methylphenyl)piperazin-1-yl)-2-(3-((3S,4S)-3-fluoro-4-hydroxypiperidine-1-carbonyl)-4,5,6,7-tetrahydro-1H-indazol-1-yl)ethanone], the concentration for half-maximal inhibition (IC50) turned out to be 1.06 nM.

Consider `Cc1c(Cl)cccc1N1CCN(C(=O)Cn2nc(C(=O)N3CCC(O)(CF)CC3)c3c2CCCC3)CC1` [Example 407, 1-(4-(3-chloro-2-methylphenyl)piperazin-1-yl)-2-(3-(4-(fluoromethyl)-4-hydroxypiperidine-1-carbonyl)-4,5,6,7-tetrahydro-1H-indazol-1-yl)ethanone], for which the half-maximal inhibitory concentration (IC50) came to 1.09 nM.

Consider `Cc1c(Cl)ccnc1N1CCN(C(=O)Cn2nc(C(=O)N3CCC(O)CC3)c3c2CCCC3)C2(CC2)C1` [Example 408, 1-(7-(4-chloro-3-methylpyridin-2-yl)-4,7-diazaspiro[2.5]octan-4-yl)-2-(3-(4-hydroxypiperidine-1-carbonyl)-4,5,6,7-tetrahydro-1H-indazol-1-yl)ethanone], for which the IC50 amounted to 4.93 nM.

As to `Cc1cccc(N2CCN(C(=O)Cn3nc(C(=O)N4CCC(O)CC4)c4c3CCCCC4)CC2)c1C` [Example 409, 1-(4-(2,3-dimethylphenyl)piperazin-1-yl)-2-(3-(4-hydroxypiperidine-1-carbonyl)-5,6,7,8-tetrahydrocyclohepta[c]pyrazol-1(4H)-yl)ethan-1-one], the 50% inhibitory concentration (IC50) is 2.63 nM.

For the compound `Cc1cccc(N2CCN(C(=O)Cn3nc(C(=O)N4C[C@@H](C)O[C@@H](C)C4)c4c3CCCCC4)CC2)c1C` [Example 410, 2-(3-((2R,6S)-2,6-dimethylmorpholine-4-carbonyl)-5,6,7,8-tetrahydrocyclohepta[c]pyrazol-1(4H)-yl)-1-(4-(2,3-dimethylphenyl)piperazin-1-yl)ethanone], the half-inhibitory concentration (IC50) came out at 4.97 nM.

Turning to `Cc1cccc(N2CCN(C(=O)Cn3nc(C(=O)N4CCC(O)C(F)C4)c4c3CCCCC4)CC2)c1C` (centres unmarked) [Example 411, 1-(4-(2,3-dimethylphenyl)piperazin-1-yl)-2-(3-(3-fluoro-4-hydroxypiperidine-1-carbonyl)-5,6,7,8-tetrahydrocyclohepta[c]pyrazol-1(4H)-yl)ethanone], the half-maximal inhibitory concentration (IC50) was determined as 8.74 nM.

Consider `Cc1cccc(N2CCN(C(=O)Cn3nc(C(=O)N4CC[C@H](O)[C@H](F)C4)c4c3CCCCC4)CC2)c1C` [Example 412, 1-(4-(2,3-dimethylphenyl)piperazin-1-yl)-2-(3-((3R,4S)-3-fluoro-4-hydroxypiperidine-1-carbonyl)-5,6,7,8-tetrahydrocyclohepta[c]pyrazol-1(4H)-yl)ethanone], for which the IC50 stood at 5.43 nM.

For the compound `Cc1cccc(N2CCN(C(=O)Cn3nc(C(=O)N4CC[C@H](O)[C@@H](F)C4)c4c3CCCCC4)CC2)c1C` [Example 413, 1-(4-(2,3-dimethylphenyl)piperazin-1-yl)-2-(3-((3S,4S)-3-fluoro-4-hydroxypiperidine-1-carbonyl)-5,6,7,8-tetrahydrocyclohepta[c]pyrazol-1(4H)-yl)ethanone], the IC50 was found to be 9.29 nM.

On to `Cc1cccc(N2CCN(C(=O)Cn3nc(C(=O)N4CC[C@H](O)[C@@H](F)C4)c4c3C(O)CC4)CC2)c1C` (some centres unmarked) [Example 420, 1-(4-(2,3-dimethylphenyl)piperazin-1-yl)-2-(3-((3 S,4 S)-3-fluoro-4-hydroxypiperidine-1-carbonyl)-6-hydroxy-5,6-dihydrocyclopenta[c]pyrazol-1(4H)-yl)ethan-1-one], for which the IC50 came to 87.4 nM.

As for `Cc1cccc(N2CCN(C(=O)Cn3nc(C(=O)N4CC[C@H](O)[C@@H](F)C4)c4c3CC(F)(F)C4)CC2)c1C` [Example 424, 2-(5,5-difluoro-3-((3 S,4S)-3-fluoro-4-hydroxypiperidine-1-carbonyl)-5,6-dihydrocyclopenta[c]pyrazol-1(4H)-yl)-1-(4-(2,3-dimethylphenyl)piperazin-1-yl)ethan-1-one], the IC50 worked out at 413 nM.

For the origin of these results see patent US12264134B2 (Merck Sharp & Dohme LLC, priority 2018, dated 2025).
